The results in this text go back to patent US10875855B2 (priority 2011, dated 2020).

Assay [1] deals with influenza virus. Briefly: Influenza therapeutic mouse model (in vivo efficacy). On the set-up: species or system Balb/c mice. The settings on record: dosing @ 48 hours post infection, 30 mg/kg BID × 10 days; for Percent Survival / Percent Weight Loss (Day 8): Balb/c mice; for Percent Survival: scored 21 days; for Percent Weight Loss (Day 8): post challenge day 8; for WBP (Penh; Day 6): whole body plethysmography, enhanced pause.

Assay [2] relates to influenza A virus (A/PR/8/34). Nature of the assay: MDCK cytopathic effect (CPE) cell protection assay, ATP detection. Type of assay: cell-based. (In general: Damage to the host cells serves as the signal in cytopathic effect assays.)
The subject of assay [3] is influenza A virus (A/PR/8/34). Nature of the assay: microbe, parasite or virus in culture. Format: cell-based. As to conditions: for bDNA EC99 (uM), class / bDNA EC99: Table 2.
Setting [4] is: Influenza A virus, PR/8, MDCK, 72 h, Table 1, MDCK cells, A/PR/8/34, 72 hours, 50% cell protection, mean all, class symbol, read-out: MDCK IC50.
[5] abbreviates: Influenza A virus, PR/8, MDCK, exemplary data, MDCK cell protection, read-out: IC50.
The mark [6] stands for this setting: Influenza A virus, PR/8, Table 1, mean all, class symbol, read-out: bDNA EC99.
Setting [7] is: Influenza A virus, PR/8, Table 1, viral RNA 50% of control wells, mean all, class symbol, read-out: bDNA EC50.
Setting [8] is: Influenza A virus, PR/8, exemplary data, bDNA, read-out: EC50.
Where [9] appears, read: Table 1, MDCK cells, A/PR/8/34, 72 hours, 50% cell protection, mean all, class symbol, read-out: MDCK IC50.
Where [10] appears, read: Table 1, mean all, class symbol.
Setting [11] is: Table 1, viral RNA 50% of control wells, mean all, class symbol, read-out: bDNA EC50.
Setting [12] is: Influenza A virus, PR/8, MDCK, Table 2, class symbol in brackets, read-out: MDCK cell IC50 (uM), class.
[13] abbreviates: Influenza A virus, PR/8, MDCK, Table 2, comparison compounds of WO2005/095400, mean value, read-out: MDCK cell IC50.
Setting [14] is: Influenza A virus, PR/8, Table 2, class symbol in brackets, read-out: bDNA EC50 (uM), class.
Where [15] appears, read: Influenza A virus, PR/8, Table 2, comparison compounds of WO2005/095400, mean value, read-out: bDNA EC50.
[16] abbreviates: comparison compounds of WO2005/095400, mean value.

Read-outs that look alike come from different tables or passages of the source.

The IC50 is the concentration at which inhibition is half-maximal. As a reminder, the EC99 is the concentration at which the effect reaches the 99% level. Broadly, the EC50 is the midpoint of the concentration-response curve.

In the case of `CC(C)(C)[C@@H](CC(=O)O)Nc1nc(-c2c[nH]c3ncc(Cl)cc23)ncc1F` [Compound 1, (R)-3-(2-(5-Chloro-1H-pyrrolo[2,3-b]pyridin-3-yl)-5-fluoropyrimidin-4-ylamino)-4,4-dimethylpentanoic acid], the “Percent Survival” value in assay [1] came out at 100%. In addition, in assay [1], the “Percent Weight Loss (Day 8)” value came to 26.6%. Moreover, the “WBP (Penh; Day 6)” value in assay [1] was 1.88. The values for the IC50 in assay [2] (setting [4]) and in assay [2] (setting [5]) were under 0.3 µM and 0.006 µM, respectively. Besides, the EC99 in assay [3] (setting [6]) was under 0.3 µM; in assay [3] (exemplary data, bDNA) it was 0.0094 µM. Besides, the results for the EC50 in assay [3] (setting [7]) and in assay [3] (setting [8]) were under 0.3 µM and 0.009 µM, respectively.

For the molecule `CC(C)(C)[C@@H](CC(=O)O)Nc1nc(-c2c[nH]c3ncc(F)cc23)ncc1F` [Compound 2, (R)-3-((5-fluoro-2-(5-fluoro-1H-pyrrolo[2,3-b]pyridin-3-yl)pyrimidin-4-yl)amino)-4,4-dimethylpentanoic acid], in assay [1], the “Percent Survival” value came to 100%. Further, in assay [1], the “Percent Weight Loss (Day 8)” value was determined as 14%. Besides, the “WBP (Penh; Day 6)” value in assay [1] is listed as 2.03. Moreover, the IC50 in assay [2] (setting [4]) was under 0.3 µM; in assay [2] (setting [5]) it was 0.004 µM. Also, the EC99 in assay [3] (setting [6]) was under 0.3 µM; in assay [3] (exemplary data, bDNA), 0.0063 µM. Further, the EC50 in assay [3] (setting [7]) is under 0.3 µM; in assay [3] (setting [8]), 0.009 µM.

On to `CC1([C@@H](CC(=O)O)Nc2nc(-c3c[nH]c4ncc(F)cc34)ncc2F)CCC1` [Compound 87, 3-((5-fluoro-2-(5-fluoro-1H-pyrrolo[2,3-b]pyridin-3-yl)pyrimidin-4-yl)amino)-3-(1-methylcyclobutyl)propanoic acid], for which the half-maximal inhibitory concentration (IC50) in assay [2] (setting [4]) was under 0.3 µM. In addition, in assay [3] (setting [6]), the 99% effect concentration (EC99) is under 0.3 µM. Also, in assay [3] (setting [7]), the concentration giving a half-maximal response (EC50) was under 0.3 µM.

Take `CC1(C(CC(=O)O)Nc2nc(-c3c[nH]c4ncc(F)cc34)ncc2F)CCC1` (stereo not drawn) [Compound 88, 3-((5-fluoro-2-(5-fluoro-1H-pyrrolo[2,3-b]pyridin-3-yl)pyrimidin-4-yl)amino)-3-(1-methylcyclobutyl)propanoic acid]: the IC50 in assay [2] (setting [9]) was under 0.3 µM. Besides, the “bDNA EC99 (uM)” value in assay [3] (setting [10]) is reported as “B (0.3 μM≤EC99 (mean all)≤3.3 μM)”. Further, in assay [3] (setting [11]), the EC50 was under 0.3 µM.

As to `CC(C)(C)[C@@H](CC(=O)O)Nc1nc(-c2c[nH]c3ncc(C#N)cc23)ncc1F` [Compound 89, (R)-3-((2-(5-cyano-1H-pyrrolo[2,3-b]pyridin-3-yl)-5-fluoropyrimidin-4-yl)amino)-4,4-dimethylpentanoic acid], in assay [2] (setting [4]), the IC50 is under 0.3 µM. Also, in assay [3] (setting [6]), the concentration for an effect of 99% (EC99) was 0.3 to 3.3 µM. Moreover, the concentration for a half-maximal effect (EC50) in assay [3] (setting [7]) is under 0.3 µM.

As for `Cc1cnc2[nH]cc(-c3ncc(F)c(N[C@H](CC(=O)O)C(C)(C)C)n3)c2c1` [Compound 90, (R)-3-((5-fluoro-2-(5-methyl-1H-pyrrolo[2,3-b]pyridin-3-yl)pyrimidin-4-yl)amino)-4,4-dimethylpentanoic acid], the IC50 in assay [2] (setting [4]) was under 0.3 µM. For the same molecule, in assay [3] (setting [6]), the 99% effect concentration (EC99) is 0.3 to 3.3 µM. The concentration for a half-maximal effect (EC50) in assay [3] (setting [7]) was under 0.3 µM.

In the case of `CC1([C@@H](CC(=O)O)Nc2nc(-c3c[nH]c4ncc(F)cc34)ncc2F)CC1` [Compound 91, (R)-3-((5-fluoro-2-(5-fluoro-1H-pyrrolo[2,3-b]pyridin-3-yl)pyrimidin-4-yl)amino)-3-(1-methylcyclopropyl)propanoic acid], the IC50 in assay [2] (setting [4]) is under 0.3 µM. For the same molecule, in assay [3] (setting [7]), the half-maximal effective concentration (EC50) was under 0.3 µM. Besides, in assay [3] (setting [10]), the “bDNA EC99 (uM)” value is recorded as “B (0.3 μM≤EC99 (mean all)≤3.3 μM)”.

On to `CC1([C@@H](CC(=O)O)Nc2nc(-c3c[nH]c4ncc(F)cc34)ncc2F)CC1` [Compound 92], for which the IC50 in assay [2] (setting [9]) was 0.3 to 3.3 µM. The “bDNA EC99 (uM)” value in assay [3] (setting [10]) was “C (EC99 (mean all)>3.3 μM)”. The EC50 in assay [3] (setting [11]) was in the range of 0.3 to 3.3 µM.

Regarding `COC(=O)C[C@@H](Nc1nc(-c2n[nH]c3ncc(Cl)cc23)ncc1F)C(C)(C)C` [Compound 96], in assay [2] (setting [4]), the IC50 was under 0.3 µM. Moreover, the EC99 in assay [3] (setting [6]) was 0.3 to 3.3 µM. For the same molecule, the EC50 in assay [3] (setting [7]) was under 0.3 µM.

Take `CC(C)(C)[C@@H](CC(=O)O)Nc1nc(-c2n[nH]c3ncc(Cl)cc23)ncc1F` [Compound 97, (R)-3-((2-(5-chloro-1H-pyrazolo[3,4-b]pyridin-3-yl)-5-fluoropyrimidin-4-yl)amino)-4,4-dimethylpentanoic acid]: the 50% inhibitory concentration (IC50) in assay [2] (setting [4]) was under 0.3 µM. Further, the EC99 in assay [3] (setting [6]) was under 0.3 µM. The half-maximal effective concentration (EC50) in assay [3] (setting [7]) is under 0.3 µM.

For the molecule `CNC(=O)[C@H](C)Nc1nc(-c2c[nH]c3ncc(Cl)cc23)ncc1F` [Compound C3, reference compound], the figures for the IC50 in assay [2] (setting [12]) and in assay [2] (setting [13]) were over 3.3 µM and over 20 µM, respectively. In addition, the EC50 in assay [3] (setting [14]) was over 3.3 µM; in assay [3] (setting [15]), 3.38 µM. Further, the “bDNA EC99 (uM), class” value in assay [3] (class symbol in brackets) is “C (EC99 (mean all)>3.3 μM)”. Further, the “bDNA EC99” value in assay [3] (setting [16]) worked out at 9.37 µM.

As for `C[C@@H](CC(=O)O)Nc1nc(-c2c[nH]c3ncc(Cl)cc23)ncc1F` [Compound C4, reference compound], the values for the IC50 in assay [2] (setting [12]) and in assay [2] (setting [13]) were 0.3 to 3.3 µM and 2.33 µM, respectively. Moreover, the results for the concentration for a half-maximal effect (EC50) in assay [3] (setting [14]) and in assay [3] (setting [15]) were over 3.3 µM and 6.4 µM, respectively. For the same molecule, the “bDNA EC99 (uM), class” value in assay [3] (class symbol in brackets) is listed as “C (EC99 (mean all)>3.3 μM)”. Further, in assay [3] (setting [16]), the “bDNA EC99” value is over 16.7 µM.
